The values below come from US5475022A, “Phenyl or heteroaryl and tetrahydronaphthyl substituted diene compounds having retinoid like biological activity” (Allergan, Inc., priority 1993, dated 1995).

The test system of one assay is ornithine decarboxylase (ODC). The experiment in a line: inhibition of TPA induction of ornithine decarboxylase (ODC). Format: cell-based. The following applies: TPA-induced ODC activity, read-out: % ODC Inhibition at 1.0 μM concentration. The source says:
The retinoid-like activity of these compounds is confirmed through the classic measure of retinoic acid activity involving the effects of retinoic acid on ornithine decarboxylase. The original work on the correlation between retinoic acid and decrease in cell proliferation was done by Verma & Boutwell, Cancer Research, 1977, 37,2196-2201. That reference discloses that ornithine decarboxylase (ODC) activity increased precedent to polyamine biosynthesis. It has been established elsewhere that increases in polyamine synthesis can be correlated or associated with cellular proliferation. Thus, if ODC activity could be inhibited, cell hyperproliferation could be modulated. Although all causes for ODC activity increases are unknown, it is known that 12-0-tetradecanoylphorbol-13-acetate (TPA) induces ODC activity.
As to `CCOC(=O)c1occc1/C=C\C=C(/C)c1cc2c(cc1C)C(C)(C)CCC2(C)C` [Compound 19, Ethyl 3-[4-methyl-4-(3,5,5,8,8-pentamethyl-5,6,7,8-tetrahydronaphthalene)-2-yl-1Z, 3E-butadiene-1-yl]-2-furanoate], the inhibition at 1 µM turned out to be 73%.

Take `COC(=O)c1ccoc1/C=C/C=C(\C)c1ccc2c(c1)C(C)(C)CCC2(C)C` [Compound 11, Methyl 2-[4-methyl-4-(5,5,8,8,-tetramethyl5,6,7,8,-tetrahydronaphthalen)-2-yl-1E,3E-butadien-1-yl] furan 3-carboxylate]: the inhibition at 1 µM came to 26%. For the compound `COC(=O)c1ccoc1/C=C/C=C(\C)c1cc2c(cc1C)C(C)(C)CCC2(C)C` [Compound 1, Methyl 2-[4-methyl-4-(3,5,5,8,8-pentamethyl-5,6,7,8-tetrahydronaphthalene)-2-yl-1E,3E-butadien-1-yl]-furan-3-carboxylate], the inhibition at 1 µM is 37%. Consider `C/C(=C\C=C\c1ccsc1C(=O)O)c1cc2c(cc1C)C(C)(C)CCC2(C)C` [Compound 17, 3-[4-Methyl-4-(3,5,5,8,8,-pentamethyl-5,6,7,8,-tetrahydronaphthalen)-2-yl-1E,3 E-butadien-1-yl]thiophene 2-carboxylic acid], for which the inhibition at 1 µM was found to be 79%. Consider `C/C(=C/C=C/c1occc1C(=O)O)c1cc2c(cc1C)C(C)(C)CCC2(C)C` [Compound 9, 2-[4-Methyl-4-(3,5,5,8,8-pentamethyl-5,6,7,8-tetrahydronaphthalene)-2-yl-1E,3Z-butadien-1-yl]-furan-3-carboxylic acid], for which the inhibition at 1 µM turned out to be 56%. Consider `COC(=O)c1ccoc1/C=C/C=C(/C)c1cc2c(cc1C)C(C)(C)CCC2(C)C` [Compound 2, Methyl 2-[4-methyl-4-(3,5,5,8,8-pentamethyl-5,6,7,8-tetrahydronaphthalene)-2-yl-1E,3Z-butadien-1-yl]-furan-3-carboxylate], for which the inhibition at 1 µM is 36%. On to `C/C(=C/C=C/c1occc1C(=O)O)c1ccc2c(c1)C(C)(C)CCC2(C)C` [Compound 14, 2-[4-Methyl-4-(5,5,8,8,-tetramethyl-5,6,7,8-tetrahydronaphthalen)-2-yl-1E,3Z-butadien-1-yl] furan 3-carboxylic acid], for which the inhibition at 1 µM was 72%. Regarding `COC(=O)c1ccoc1/C=C/C=C(/C)c1ccc2c(c1)C(C)(C)CCC2(C)C` [Compound 12, Methyl 2-[4-methyl-4-(5,5,8,8, -tetramethyl-5,6,7,8, -tetrahydronaphthalen)2-yl-1E, 3Z-butadien-1-yl] furan 3-carboxylate], the inhibition at 1 µM was 42%. Still for that read-out and setting: next, `COC(=O)c1ccccc1/C=C/C=C(\C)c1cc2c(cc1C)C(C)(C)CCC2(C)C` [Compound 24, Methyl 2-[4-methyl-4-(3,5,5,8,8-pentametyl-5,6,7,8-tetrahydronaphthalene)-2-yl-1E,3E-butadien-1-yl]benzoate]: 88%. In the case of `C/C(=C/C=C/c1ccccc1C(=O)O)c1cc2c(cc1C)C(C)(C)CCC2(C)C` [Compound 8, 2-[4-Methyl4-(3,5,5,8,8-pentamethyl-5,6,7,8-tetrahydronaphthalene)-2-yl-1E,3Z-butadien-1-yl]benzoic acid], the inhibition at 1 µM came out at 75%. Still for that read-out and setting: next, `C/C(=C\C=C\c1ccccc1C(=O)O)c1cc2c(cc1C)C(C)(C)CCC2(C)C` [Compound 7, 2-[4-Methyl-4-(3,5,5,8,8-pentamethyl-5,6,7,8-tetrahydronaphthalene)-2-yl-1E,3E-butadien-1-yl]benzoic acid]: 79%. Consider `C/C(=C\C=C\c1occc1C(=O)O)c1ccc2c(c1)C(C)(C)CCC2(C)C` [Compound 13, 2-[4-Methyl-4-(5,5,8,8,-tetramethyl-5,6,7,8,-tetrahydronaphthalen)-2-yl-1E,3E-butadien-1-yl] furan 3-carboxylic acid], for which the inhibition at 1 µM stood at 60%.

Staying with this assay, now noted: value determined by linear regression of data collected at 30, 100, 300 nanomolar concentrations, read-out: % ODC Inhibition at 1.0 μM concentration.
As for `COC(=O)c1ccccc1/C=C/C=C(\C)c1ccc2c(c1)C(C)(C)CCC2(C)C` [Compound 6, Methyl 2-[4-methyl-4-(5,5,8,8-tetramethyl-5,6,7,8-tetrahydronaphthalene)-2-yl-1E,3E-butadien-1-yl]benzoate], the inhibition at 1 µM amounted to 100%.

The next assay concerns ornithine decarboxylase (ODC).
Experiment: not given
The following applies: literature statement; cited from earlier work.
For `CC1=C(/C=C/C(C)=C/C=C/C(C)=C/C(=O)O)C(C)(C)CCC1` [Retinoic acid], the “inhibition of induction of ODC activity by TPA” value is “inhibits this induction of ODC activity by TPA”.
